Read-outs that look alike come from different tables or passages of the source.
What was measured:
[1] = Half-life of coupled and uncoupled hydroxy-peroxides in benzene; type: physicochemical; conditions: for t1/2: benzene, 0.1 molar, 100000 µM; for half-life relative to the hydroxy containing peroxide precursors: in words, see Example XVI
Source text: Half-Life Comparisons of Coupled and Uncoupled Hydroxy-Peroxides (Carried out in Benzene at 0.1 molar concentrations)

[2] = Crosslinking of polyethylene (Table I, xylene solvent extraction); conditions: for % Crosslinking: 30 minutes; for efficiency as crosslinking agent: in words, see Table I
Experimental: A mixture of the desired polymeric material and 0.01 mole of the difunctional coupled compound is blended together on a standard roll mill, such as used in the rubber industry. […]
The slabs are permitted to cool down and mature at room temperature for 24 hours. The mature slabs were then cut into dumbell shaped samples and tested for tensile strength on an Instron Tensile Tester, following ASTM procedure as described in D412-61T "Tension Testing of Vulcanized Rubber" or the crosslinking in the case of polyethylene is determined by the solvent extraction procedure. In addition to the polymer-peroxide mixture, the crosslinkable mixture, may contain co-agents such as sulfur, promoters, fillers, and reinforcing materials. Desirable fillers are carbon black, titanium dioxide, calcium silicate and alkaline earth metal carbonates.
In Table I the crosslinking ability of the coupled compounds of our invention in polyethylene are compared to a hydroxy-containing peroxide and to difunctional peroxides. Tables II, III, and IV show the versatility of the product of our invention in urethane rubber, ethylene-propylene rubber and silicone rubber.
The polyethylene used for this test was a low density polyethylene
Bakelite DYNH-1, having the following physical properties:
The crosslinking test was carried out at 340° and 375° F.
(1) The percentage crosslinking was determined by extraction of the
crosslinked sample with refluxing xylene. In all cases the polyethylene
charge was 100% extractable before crosslinking.
(2) Based on number of active oxygens per mole.

[3] = Volatility and thermal stability of peroxides (in words); type: physicochemical
Source text: Some of the desirable properties that a peroxide has to have to be useful for crosslinking polyethylene are: low volatility, high thermal stability, and good efficiency with respect to its active oxygen content.
The volatility and the thermal stability are necessary requisites, since the peroxide has to tolerate the high temperatures of the milling operation, which is a necessary step to incorporate the peroxide with the polymer before the crosslinking process. If the peroxide is too volatile (as in the case of di-t-butyl peroxide) there would not be any peroxide left for the crosslinking process at the end of the milling step. If the peroxide is not volatile, but its thermal stability is low, a premature decomposition of the peroxide will take place during the milling step, which results in a premature crosslinking of the polymer. If this happens, the polymer cannot be shaped or formed any further since the thermoplastic polymer has become thermoset too soon.

[4] = Initiation of vinyl monomer (styrene) polymerization
Experimental: This example illustrates the use of coupled peroxides of present disclosures as initiators of vinyl monomer polymerization. Compound [B] (from Example V) at a concentration of 5 × 10^-4 moles per deciliter of styrene, polymerized styrene at 100° C. at a rate of 6.20 × 10^-3 moles per liter per minute. When no initiator is present, the thermal polymerization of styrene at 100° C. proceeds at a rate of 2.82 × 10^-3 moles per liter per minute. Compound [A] (from Examples I, II, and III) at a concentration of 5 × 10^-4 moles per diciliter of styrene polymerized styrene 1.65 faster at 115° C. than the thermal polymerization rate when no polymerization initiator is present.

[5] = S.P.I. exotherm, curing an unsaturated polyester-styrene resin (Table V); conditions: 1% concentration; for Cure Time / Gel Time: 115° C.; for Peak: exotherm at 115° C.
Experimental: An unsaturated polyester resin was made by reacting maleic anhydride (1.0 mole), phthalic anhydride (1.0 mole), and propylene glycol (2.2 mole) until an acid number of 45-50 was obtained. To this was added hydroquinone at a 0.013% concentration. Seven parts of this unsaturated polyester was diluted with 3 parts of monomeric styrene to obtain a homogeneous blend having a viscosity of 13.08 poise and a specific gravity of 1.14. To 20 g. of this blend was added the 0.2 g. of the desired coupled peroxide and the resulting composition placed in a constant temperature bath at 115° C.
The internal temperature was recorded as function of time. The following results were obtained with some of the coupled compounds (Table V):
S.P.I. EXOTHERM AT 115° C. AND 1% CONCENTRATION
IN POLYESTER RESIN PREPARED IN EXAMPLE VIII

[6] = in words; milling step; cited from earlier work

Compound: CC(C)(C)OOC(=O)CCO [t-butylperoxy 3-hydroxypropionate, reference compound]
- t1/2 ([1]; 100° C.): 13.0 h

Compound: CC(O)CC(C)(C)OOC(C)(C)C (stereo not drawn) [2-Methyl-2-(t-butylperoxy)-4-pentanol]
- % Crosslinking ([2]; 340° F., 0.015 molar equivs.): 78.4%
- % Crosslinking ([2]; 375° F., 0.015 molar equivs.): 75.4%
- efficiency as crosslinking agent [2]: poor
- t1/2 ([1]; 115° C.): 13.6 h
- thermal stability [3]: good
- volatility [3]: low

Compound: CC(C)(C)OOC(C)(C)CCC(C)(C)OOC(C)(C)C [2,5-dimethyl-2,5-di(t-butylperoxy)-hexane]
- % Crosslinking ([2]; 340° F., 0.010 molar equivs.): 85.9%
- % Crosslinking ([2]; 340° F., 0.015 molar equivs.): 89.3%
- % Crosslinking ([2]; 375° F., 0.010 molar equivs.): 84.5%
- % Crosslinking ([2]; 375° F., 0.015 molar equivs.): 88.0%
- efficiency as crosslinking agent [2]: not as efficient in utilizing their active oxygen content as the difunctional peroxide of our invention

Compound: CC(C)(C)OOC(=O)CCOC(=O)OCCC(=O)OOC(C)(C)C [Di[2-(t-butylperoxycarbonyl)ethyl]carbonate]
- rate of styrene polymerization ([4]; 100° C., 5 × 10^-4 moles per deciliter of styrene): 6.20 × 10^-3 moles per liter per minute
- Cure Time [5]: 8.5 min
- Gel Time [5]: 7.1 min
- Peak [5]: 450 ° F
- t1/2 ([1]; 100° C.): 30.7 h
- half-life relative to the hydroxy containing peroxide precursors [1]: almost double

Compound: CC(C)(C)OOC(C)(C)C [di-t-butyl peroxide]
- volatility [6]: too volatile

Compound: CC(CC(C)(C)OOC(C)(C)C)OC(=O)OC(C)CC(C)(C)OOC(C)(C)C (stereo not drawn) [Di[1,3-dimethyl-3-(t-butylperoxy)butyl] carbonate]
- % Crosslinking ([2]; 340° F., 0.010 molar equivs.): 89.3%
- % Crosslinking ([2]; 375° F., 0.010 molar equivs.): 89.7%
- styrene polymerization, faster than the thermal polymerization rate when no initiator is present ([4]; 115° C., 5 × 10^-4 moles per diciliter of styrene): 1.65
- Cure Time [5]: 11.1 min
- Gel Time [5]: 9.5 min
- Peak [5]: 455 ° F
- t1/2 ([1]; 115° C.): 26.8 h
- half-life relative to the hydroxy containing peroxide precursors [1]: almost double

Compound: CC(C)(C)OOC(C)(C)C#CC(C)(C)OOC(C)(C)C [2,5-dimethyl-2,5-di(t-butylperoxy)-hexyne-3]
- % Crosslinking ([2]; 340° F., 0.010 molar equivs.): 81.8%
- % Crosslinking ([2]; 340° F., 0.015 molar equivs.): 86.0%
- % Crosslinking ([2]; 375° F., 0.010 molar equivs.): 84.9%
- % Crosslinking ([2]; 375° F., 0.015 molar equivs.): 87.7%
- efficiency as crosslinking agent [2]: not as efficient in utilizing their active oxygen content as the difunctional peroxide of our invention

Compound: CC(CC(C)(C)OOC(C)(C)C)OC(=O)CCC(=O)OC(C)CC(C)(C)OOC(C)(C)C (stereo not drawn) [Di[1,3-dimethyl-3-(t-butylperoxy)butyl]succinate]
- % Crosslinking ([2]; 340° F., 0.010 molar equivs.): 88.9%
- % Crosslinking ([2]; 375° F., 0.010 molar equivs.): 89.2%

Compound: CC(CC(C)(C)OOC(C)(C)C)OC(=O)OCCOC(=O)OC(C)CC(C)(C)OOC(C)(C)C (stereo not drawn) [Ethylene Bis[1,3-dimethyl-3-(t-butylperoxy)-butyl carbonate]]
- % Crosslinking ([2]; 340° F., 0.010 molar equivs.): 87.9%
- % Crosslinking ([2]; 375° F., 0.010 molar equivs.): 87.4%
- Cure Time [5]: 12.8 min
- Gel Time [5]: 10.8 min
- Peak [5]: 450 ° F

Reference: patent US4072810A, “Coupled peroxides” (priority 1973, dated 1978)
